Data: US7642251B2, “Compounds for the treatment of hepatitis C” (Bristol-Myers Squibb Company, priority 2007, dated 2010)
Read-outs that look alike come from different tables or passages of the source.

Tests used:
HCV NS5B = molecular target: T1, HCV NS5B (Hepatitis C virus genotype 1b, UniProt Q9WMX2); test: Modified HCV NS5B RdRp enzyme assay (preincubation protocol); format: biochemical
T1 construct: The cDNA encoding the NS5B protein of HCV, genotype 1b; made in house; host or cells: E. coli BL21(DE3)
T1 sequence (Q9WMX2 2420-2992): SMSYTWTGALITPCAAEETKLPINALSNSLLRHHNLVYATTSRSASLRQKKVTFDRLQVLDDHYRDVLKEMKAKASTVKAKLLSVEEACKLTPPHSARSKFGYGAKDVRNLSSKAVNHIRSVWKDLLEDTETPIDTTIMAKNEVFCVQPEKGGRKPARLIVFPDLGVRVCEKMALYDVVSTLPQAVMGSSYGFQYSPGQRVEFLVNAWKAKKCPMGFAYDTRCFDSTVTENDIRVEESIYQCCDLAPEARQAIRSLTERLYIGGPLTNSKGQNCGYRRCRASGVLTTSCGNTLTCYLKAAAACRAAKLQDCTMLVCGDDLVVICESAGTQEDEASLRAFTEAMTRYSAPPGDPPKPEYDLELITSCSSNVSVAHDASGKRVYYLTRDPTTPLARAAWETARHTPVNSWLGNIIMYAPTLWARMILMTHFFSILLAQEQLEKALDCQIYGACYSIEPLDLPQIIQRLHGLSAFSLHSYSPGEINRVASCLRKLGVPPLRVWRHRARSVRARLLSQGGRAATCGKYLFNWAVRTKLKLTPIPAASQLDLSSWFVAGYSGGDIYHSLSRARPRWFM
Description: HCV NS5B RdRp cloning, expression, and purification. The cDNA encoding the NS5B protein of HCV, genotype 1b, was cloned into the pET21a expression vector. The protein was expressed with an 18 amino acid C-terminal truncation to enhance the solubility. The E. coli competent cell line BL21(DE3) was used for expression of the protein. Cultures were grown at 37° C. for ˜4 hours until the cultures reached an optical density of 2.0 at 600 nm. The cultures were cooled to 20° C. and induced with 1 mM IPTG. Fresh ampicillin was added to a final concentration of 50 μg/ml and the cells were grown overnight at 20° C.
Cell pellets (3 L) were lysed for purification to yield 15-24 mgs of purified NS5B. The lysis buffer consisted of 20 mM Tris-HCl, pH 7.4, 500 mM NaCl, 0.5% triton X-100, 1 mM DTT, 1 mM EDTA, 20% glycerol, 0.5 mg/ml lysozyme, 10 mM MgCl2, 15 ug/ml deoxyribonuclease I, and Complete™ protease inhibitor tablets (Roche). After addition of the lysis buffer, frozen cell pellets were resuspended using a tissue homogenizer. To reduce the viscosity of the sample, aliquots of the lysate were sonicated on ice using a microtip attached to a Branson sonicator. The sonicated lysate was centrifuged at 100,000×g for 1 hr at 4° C. and filtered through a 0.2 μm filter unit (Corning).
The protein was purified using three sequential chromatography steps: Heparin sepharose CL-6B, polyU sepharose 4B, and Hitrap SP sepharose (Pharmacia). The chromatography buffers were identical to the lysis buffer but contained no lysozyme, deoxyribonuclease I, MgCl2 or protease inhibitor and the NaCl concentration of the buffer was adjusted according to the requirements for charging the protein onto the column. Each column was eluted with a NaCl gradient which varied in length from 5-50 column volumes depending on the column type. After the final chromatography step, the resulting purity of the enzyme is >90% based on SDS-PAGE analysis. The enzyme was aliquoted and stored at −80° C.
Standard HCV NS5B RdRp enzyme assay. HCV RdRp genotype 1b assays were run in a final volume of 60 μl in 96 well plates (Costar 3912). The assay buffer is composed of 20 mM Hepes, pH 7.5, 2.5 mM KCl, 2.5 mM MgCl2, 1 mM DTT, 1.6 U RNAse inhibitor (Promega N2515), 0.1 mg/ml BSA (Promega R3961), and 2% glycerol. All compounds were serially diluted (3-fold) in DMSO and diluted further in water such that the final concentration of DMSO in the assay was 2%. HCV RdRp genotype 1b enzyme was used at a final concentration of 28 nM. A polyA template was used at 6 nM, and a biotinylated oligo-dT12 primer was used at 180 nM final concentration. Template was obtained commercially (Amersham 27-4110). Biotinylated primer was prepared by Sigma Genosys. 3H-UTP was used at 0.6 μCi (0.29 μM total UTP). Reactions were initiated by the addition of enzyme, incubated at 30° C. for 60 min, and stopped by adding 25 μl of 50 mM EDTA containing SPA beads (4 μg/μl, Amersham RPNQ 0007). Plates were read on a Packard Top Count NXT after >1 hr incubation at room temperature.
Modified HCV NS5B RdRp enzyme assay. A modified enzyme assay was performed essentially as described for the standard enzyme assay except for the following: The biotinylated oligo dT12 primer was precaptured on streptavidin-coated SPA beads by mixing primer and beads in assay buffer and incubating at room temperature for one hour. Unbound primer was removed after centrifugation. The primer-bound beads were resuspended in 20 mM Hepes buffer, pH 7.5 and used in the assay at final concentrations of 20 nM primer and 0.67 μg/μl beads. Order of addition in the assay: enzyme (14 nM) was added to diluted compound followed by the addition of a mixture of template (0.2 nM), 3H-UTP (0.6 μCi, 0.29 μM), and primer-bound beads, to initiate the reaction; concentrations given are final. Reactions were allowed to proceed for 4 hours at 30° C.
IC50 values for compounds were determined using seven different [I]. […]

HCV replicon cells = test: HCV replicon FRET assay; format: cell-based; details: Hepatitis C virus
From the text: FRET Assay Preparation. To perform the HCV FRET screening assay, 96-well cell culture plates were used. The FRET peptide (Anaspec, Inc.) (Taliani et al., Anal. Biochem. 1996, 240, 60-67) contains a fluorescence donor, EDANS, near one end of the peptide and an acceptor, DABCYL, near the other end. The fluorescence of the peptide is quenched by […] resonance energy transfer (RET) between the donor and the acceptor, but as the NS3 protease cleaves the peptide the products are released from RET quenching and the fluorescence of the donor becomes apparent. The assay reagent was made as follows: 5× cell Luciferase cell culture lysis reagent from Promega (#E153A) diluted to 1× with dH2O, NaCl added to 150 mM final, the FRET peptide diluted to 20 μM final from a 2 mM stock.
To prepare plates, HCV replicon cells, with or without a Renilla luciferase reporter gene, were trypsinized and placed into each well of a 96-well plate with titrated test compounds added in columns 3 through 12; columns 1 and 2 contained a control compound (HCV protease inhibitor), and the bottom row contained cells without compound. The plates were then placed in a CO2 incubator at 37° C.
Assays. Subsequent to addition of the test compounds described above (FRET Assay Preparation), at various times the plate was removed and Alamar blue solution (Trek Diagnostics, #00-100) was added per well as a measure of cellular toxicity. After reading in a Cytoflour 4000 instrument (PE Biosystems), plates were rinsed with PBS and then used for FRET assay by the addition of 30 ul of the FRET peptide assay reagent described above (FRET Assay Preparation) per well. The plate was then placed into the Cytoflour 4000 instrument which had been set to 340 excite/490 emission, automatic mode for 20 cycles and the plate read in a kinetic mode. Typically, the signal to noise using an endpoint analysis after the reads was at least three-fold. Alternatively, after Alamar blue reading, plates were rinsed with PBS, 50 ul of DMEM (high glucose) without phenol red was added and plates were then used for luciferase assay using the Promega Dual-Glo Luciferase Assay System.
Compound analysis was determined by quantification of the relative HCV replicon inhibition and the relative cytotoxicity values. To calculate cytoxicity values, the average Alamar Blue fluorescence signals from the control wells were set as 100% non-toxic. The individual signals in each of the compound test wells were then divided by the average control signal and multiplied by 100% to determine […]. To calculate the HCV replicon inhibition values, an average background value was obtained from the two wells containing the highest amount of HCV protease inhibitor at the end of the assay period. These numbers were similar to those obtained from naïve Huh-7 cells.
The background numbers were then subtracted from the average signal obtained from the control wells and this number was used as 100% activity. The individual signals in each of the compound test wells were then divided by the averaged control values after background subtraction and multiplied by 100% to determine percent activity. EC50 values for a protease inhibitor titration were calculated as the concentration which caused a 50% reduction in FRET or luciferase activity. The two numbers generated for the compound plate, percent cytoxicity and percent activity were used to determine compounds of interest for further analysis.

[1] = preincubation protocol, read-out: IC50

Structure (SMILES)	IC50 (HCV NS5B; [1])	EC50 (HCV replicon cells; FRET assay, read-out: EC50)	IC50 (HCV NS5B)	EC50 (HCV replicon cells)
COc1ccc2c(c1)C=C(c1cccc(N3CCOCC3)n1)Cn1c-2c(C2CCCCC2)c2ccc(C(=O)NS(=O)(=O)N(C)C)cc21	0.00458 to 0.5 µM	0.00458 to 0.5 µM		
COc1ccc2c(c1)C=C(c1ccccc1C(=O)N1C3CCC1CN(C)C3)Cn1c-2c(C2CCCCC2)c2ccc(C(=O)O)cc21			0.00458 to 0.5 µM	0.00458 to 0.5 µM
COc1ccc2c(c1)CC(c1cccc(OCCN(C)C)c1)Cn1c-2c(C2CCCCC2)c2ccc(C(=O)NS(=O)(=O)C(C)C)cc21 (stereo not drawn)	0.00458 to 0.5 µM	0.00458 to 0.5 µM		
COc1ccc2c(c1)C=C(c1ccccc1C(=O)N1C3CCC1CN(C)C3)Cn1c-2c(C2CCCCC2)c2ccc(C(=O)OC(C)(C)C)cc21			> 0.5 µM	> 0.5 µM
COc1ccc2c(c1)C=C(c1cc(C(F)(F)F)ccc1N1CCOCC1)Cn1c-2c(C2CCCCC2)c2ccc(C(=O)NS(=O)(=O)C(C)C)cc21	> 0.5 µM	> 0.5 µM		
COc1ccc2c(c1)C=C(c1cc(C(=O)N3CCOCC3)ccn1)Cn1c-2c(C2CCCCC2)c2ccc(C(=O)O)cc21	> 0.5 µM	> 0.5 µM		
COc1ccc2c(c1)CC(c1ncccc1C(=O)N1CCOCC1)Cn1c-2c(C2CCCCC2)c2ccc(C(=O)NS(=O)(=O)N(C)C)cc21 (stereo not drawn)	0.00458 to 0.5 µM	0.00458 to 0.5 µM		
COc1ccc2c(c1)C=C(c1ncccc1S(=O)(=O)N1C3CCC1CN(C)C3)Cn1c-2c(C2CCCCC2)c2ccc(C(=O)O)cc21			> 0.5 µM	0.00458 to 0.5 µM
COc1ccc2c(c1)C=C(c1ncccc1N1CC(C)(C)C1=O)Cn1c-2c(C2CCCCC2)c2ccc(C(=O)O)cc21	0.00458 to 0.5 µM	0.00458 to 0.5 µM		
COc1ccc2c(c1)C=C(c1ccccc1CN1CCOCC1)Cn1c-2c(C2CCCCC2)c2ccc(C(=O)NS(=O)(=O)C(C)C)cc21	0.00458 to 0.5 µM	0.00458 to 0.5 µM		
COc1ccc2c(c1)CC(c1cc(C(=O)N3CCOCC3)ccn1)Cn1c-2c(C2CCCCC2)c2ccc(C(=O)NS(=O)(=O)N(C)C)cc21 (stereo not drawn)	0.00458 to 0.5 µM	0.00458 to 0.5 µM		
COc1ccc2c(c1)C=C(c1cc([N+](=O)[O-])c3[nH]ccc3c1)Cn1c-2c(C2CCCCC2)c2ccc(C(=O)O)cc21	0.00458 to 0.5 µM	> 0.5 µM		
COc1ccc2c(c1)C=C(c1ccccc1)Cn1c-2c(C2CCCCC2)c2ccc(C(=O)NS(=O)(=O)N(C)C)cc21	0.00458 to 0.5 µM	> 0.5 µM		
COc1ccc2c(c1)C=C(c1ccccc1S(=O)(=O)N(C)C)Cn1c-2c(C2CCCCC2)c2ccc(C(=O)NS(=O)(=O)C(C)C)cc21	0.00458 to 0.5 µM	> 0.5 µM		
COc1ccc2c(c1)C=C(c1ccccc1)Cn1c-2c(C2CCCCC2)c2ccc(C(=O)NS(=O)(=O)C(C)C)cc21	0.00458 to 0.5 µM	> 0.5 µM		
COc1ccc2c(c1)C=C(c1cccc3c1OCCO3)Cn1c-2c(C2CCCCC2)c2ccc(C(=O)NS(=O)(=O)C(C)C)cc21	0.00458 to 0.5 µM	> 0.5 µM		
COc1ccc2c(c1)C=C(c1ccccc1OC(F)F)Cn1c-2c(C2CCCCC2)c2ccc(C(=O)NS(=O)(=O)C(C)C)cc21	0.00458 to 0.5 µM	> 0.5 µM		
COc1ccc2c(c1)C=C(c1ncccc1C(=O)N1C3CCC1CN(C)C3)Cn1c-2c(C2CCCCC2)c2ccc(C(=O)O)cc21			0.00458 to 0.5 µM	0.00458 to 0.5 µM
COc1ccc2c(c1)C=C(c1nccc(C(=O)N3CCOCC3)n1)Cn1c-2c(C2CCCCC2)c2ccc(C(=O)NS(=O)(=O)N(C)C)cc21	0.00458 to 0.5 µM	0.00458 to 0.5 µM		
COc1ccc2c(c1)C=C(c1ncccc1C(=O)N1CCCCC1)Cn1c-2c(C2CCCCC2)c2ccc(C(=O)O)cc21	0.00458 to 0.5 µM	0.00458 to 0.5 µM		
COc1ccc2c(c1)CC(c1cccc(OCCN3CCOCC3)c1)Cn1c-2c(C2CCCCC2)c2ccc(C(=O)NS(=O)(=O)C(C)C)cc21 (stereo not drawn)	0.00458 to 0.5 µM	0.00458 to 0.5 µM		
COc1ccc2c(c1)C=C(c1cccc(OCCN(C)C)c1)Cn1c-2c(C2CCCCC2)c2ccc(C(=O)NS(=O)(=O)C(C)C)cc21	0.00458 to 0.5 µM	> 0.5 µM		
COc1ccc2c(c1)C=C(c1ncccc1C(=O)N1CCOCC1)Cn1c-2c(C2CCCCC2)c2ccc(C(=O)O)cc21	0.00458 to 0.5 µM	0.00458 to 0.5 µM		
COc1ccc2c(c1)C=C(c1cnc(OC)c3[nH]ccc13)Cn1c-2c(C2CCCCC2)c2ccc(C(=O)O)cc21	0.00458 to 0.5 µM	0.00458 to 0.5 µM		
COc1ccc2c(c1)C=C(c1ncccc1C(=O)N1CCC(O)CC1)Cn1c-2c(C2CCCCC2)c2ccc(C(=O)O)cc21	0.00458 to 0.5 µM	0.00458 to 0.5 µM		
COc1ccc2c(c1)C=C(c1ncccc1C(=O)N1CCN(C)CC1)Cn1c-2c(C2CCCCC2)c2ccc(C(=O)O)cc21	0.00458 to 0.5 µM	0.00458 to 0.5 µM		
COc1ccc2c(c1)C=C(c1ccccc1S(=O)(=O)N(C)CCN(C)C)Cn1c-2c(C2CCCCC2)c2ccc(C(=O)NS(=O)(=O)C(C)C)cc21	0.00458 to 0.5 µM	0.00458 to 0.5 µM		
COc1ccc2c(c1)C=C(c1ncccc1C(=O)N(C)C)Cn1c-2c(C2CCCCC2)c2ccc(C(=O)NS(=O)(=O)N(C)C)cc21	0.00458 to 0.5 µM	0.00458 to 0.5 µM		
COc1ccc2c(c1)C=C(c1cccc(OCCN3CCOCC3)c1)Cn1c-2c(C2CCCCC2)c2ccc(C(=O)NS(=O)(=O)C(C)C)cc21	0.00458 to 0.5 µM	> 0.5 µM		
COc1ccc2c(c1)C=C(c1ncccc1C(=O)N(C)C)Cn1c-2c(C2CCCCC2)c2ccc(C(=O)O)cc21	0.00458 to 0.5 µM	0.00458 to 0.5 µM		
